Test results from patent publication US20190330226A1, “POSITIVE ALLOSTERIC MODULATORS OF THE MUSCARINIC ACETYLCHOLINE RECEPTOR M1” (Vanderbilt University, priority 2018, published 2019).

Molecular target: T1, human mAChR M1 (Homo sapiens, UniProt P11229)
T1 construct: host or cells: CHO-K1 (ATCC), stably transfected using Lipofectamine 2000
T1 sequence (P11229 1-460): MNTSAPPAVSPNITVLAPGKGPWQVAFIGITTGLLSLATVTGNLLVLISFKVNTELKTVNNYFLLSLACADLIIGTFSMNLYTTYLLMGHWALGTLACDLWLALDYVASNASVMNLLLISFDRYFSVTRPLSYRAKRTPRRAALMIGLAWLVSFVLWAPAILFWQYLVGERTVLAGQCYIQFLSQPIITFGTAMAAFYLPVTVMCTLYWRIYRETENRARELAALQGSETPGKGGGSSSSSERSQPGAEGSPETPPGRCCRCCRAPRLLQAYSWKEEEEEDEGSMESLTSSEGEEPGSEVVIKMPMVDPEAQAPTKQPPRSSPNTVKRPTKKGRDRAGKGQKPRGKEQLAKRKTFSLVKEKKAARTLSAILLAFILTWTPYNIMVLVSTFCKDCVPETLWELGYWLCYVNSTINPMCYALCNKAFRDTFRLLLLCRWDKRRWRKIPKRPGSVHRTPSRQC
Assay: mAChR M1 cell-based functional assay (calcium mobilization, Fluo-4, FDSS)
Conditions: CHO-K1 cells stably expressing hM1, calcium flux; for Emax: PAM mode with EC20 acetylcholine; for EC50: concentration-dependent increase in the EC20 acetylcholine response
Text: Chinese hamster ovary (CHO-K1) cells stably expressing rat (r)M1 were purchased from the American Type Culture Collection and cultured according to their indicated protocol. CHO cells stably expressing human (h)M2, hM3, and hM5 were described previously (Levey, et al., 1991); hM1 and hM4 cDNAs were purchased from Missouri S&T cDNA Resource; rM4 cDNA was provided by T. I. Bonner (National Institutes of Health, Bethesda, Md.). rM2 and rM3 were cloned from a rat brain cDNA library and sequence verified. hM1, rM2, rM3, hM4, and rM4 cDNAs were used to stably transfect CHO-K1 cells purchased from the American Type Culture Collection using Lipofectamine 2000. To make stable rM2, hM2, rM3, hM4, and rM4 cell lines for use in calcium mobilization assays, these cells also were stably transfected with a chimeric G-protein (Gqi5) (provided by B. R. Conklin, University of California, San Francisco) using Lipofectamine 2000. rM1, hM1, rM3, hM3, rM5, and hM5 cells were grown in Ham's F-12 medium containing 10% heat-inactivated fetal bovine serum (FBS), 20 mM HEPES, and 50 µg/mL G418 sulfate. rM2-Gqi5, hM2-Gqi5, and hM4-Gqi5 cells were grown in the same medium also containing 500 μg/mL Hygromycin B. Stable rM4-Gqi5 cells were grown in DMEM containing 10% heat-inactivated FBS, 20 mM HEPES, 400 μg/mL G418 sulfate, and 500 μg/mL Hygromycin B.
For high throughput measurement of agonist-evoked increases in intracellular calcium, CHO-K1 cells stably expressing muscarinic receptors were plated in growth medium lacking G418 and hygromycin at 15,000 cells/20 μL/well in Greiner 384-well black-walled, tissue culture (TC)-treated, clear-bottom plates (VWR). Cells were incubated overnight at 37° C. and 5% CO2. The next day, cells were washed using an ELX 405 (BioTek) with four washes ([…]) of assay buffer then aspirated to 20 μL. Next, 20 μL of 16 μM Fluo-4/acetoxymethyl ester (Invitrogen, Carlsbad, Calif.) prepared as a 2.3 mM stock in DMSO and mixed in a 1:1 ratio with 10% (w/v) Pluronic F-127 and diluted in assay buffer was added to the wells and the cell plates were incubated for 50 min at 37° C. and 5% CO2. Dye was removed by washing with the ELX 405 (four 80 μL washes of assay buffer) then aspirated to 20 μL. Compound master plates were formatted in an 11 point CRC format (1:3 dilutions) in 100% DMSO with a starting concentration of 10 mM using the BRAVO liquid handler (Agilent). Test compound CRCs were then transferred to daughter plates (240 nL) using the Echo acoustic plate reformatter (Labcyte, Sunnyvale, Calif.) and then diluted into assay buffer (40 μL) to a 2× stock using a Thermo Fisher Combi (Thermo Fisher Scientific, Waltham, Mass.).
Calcium flux was measured using the Functional Drug Screening System (FDSS) 6000 (Hamamatsu Corporation, Tokyo, Japan) as an increase in the fluorescent static ratio. Compounds were applied to cells (20 μL, 2×) using the automated system of the FDSS 6000 at 4 s into the 300 s protocol and the data were collected at 1 Hz. At 144 s into the 300s protocol, 10 μL of an EC20 concentration of the muscarinic receptor agonist acetylcholine was added (5×), followed by the addition of 12 μL an EC80 concentration of acetylcholine at the 230 s time point (5×). Agonist activity was analyzed as a concentration-dependent increase in calcium mobilization upon compound addition. Positive allosteric modulator activity was analyzed as a concentration-dependent increase in the EC20 acetylcholine response. Antagonist activity was analyzed as a concentration-dependent decrease in the EC80 acetylcholine response. Concentration-response curves were generated using a four-parameter logistical equation in XLfit curve fitting software (IDBS, Bridgewater, N.J.) for Excel (Microsoft, Redmond, Wash.) or Prism (GraphPad Software, Inc., San Diego, Calif.).
Activity (EC50 and Emax) was determined in the mAChR M1 cell-based functional assay as described above and the data are shown in Table 2. […]

Structure (SMILES)	Emax	EC50
Cc1ccc(-c2cc(F)c(CN3Cc4ncsc4C3=O)c(F)c2)cn1 [Compound 23, 5-(2,6-difluoro-4-(6-methylpyridin-3-yl)benzyl)-4,5-dihydro-6H-pyrrolo[3,4-d]thiazol-6-one]	27%	–
Cn1cc2c(-c3cc(F)c(CN4Cc5cnn(Cc6ccccn6)c5C4=O)c(F)c3)cccc2n1 [Compound 6, 5-(2,6-Difluoro-4-(2-methyl-2H-indazol-4-yl)benzyl)-1-(pyridin-2-ylmethyl)-4,5-dihydropyrrolo[3,4-c]pyrazol-6(1H)-one]	63%	–
Cn1cc2cc(-c3ccc(CN4Cc5ncsc5C4=O)c(F)c3)ccc2n1 [Compound 13, 5-(2-fluoro-4-(2-methyl-2H-indazol-5-yl)benzyl)-4,5-dihydro-6H-pyrrolo[3,4-d]thiazol-6-one]	51%	1.85 µM
Cn1cc(-c2ccc(CN3Cc4sccc4C3=O)c(F)c2)cn1 [Compound 41, 5-(2-fluoro-4-(1-methyl-1H-pyrazol-4-yl)benzyl)-5,6-dihydro-4H-thieno[2,3-c]pyrrol-4-one]	69%	–
Cc1nn(C)cc1-c1cc(F)c(CN2Cc3occc3C2=O)c(F)c1 [Compound 59, 5-(4-(1,3-dimethyl-1H-pyrazol-4-yl)-2,6-difluorobenzyl)-5,6-dihydro-4H-furo[2,3-c]pyrrol-4-one]	90%	–
CCCn1ccc2c1C(=O)N(Cc1c(F)cc(-c3cccc4nn(C)cc34)cc1F)C2 [Compound 10, 5-(2,6-difluoro-4-(2-methyl-2H-indazol-4-yl)benzyl)-1-propyl-4,5-dihydropyrrolo[3,4-b]pyrrol-6(1H)-one]	59%	–
Cn1cc2c(-c3cc(F)c(CN4Cc5cnn(CCO)c5C4=O)c(F)c3)cccc2n1 [Compound 24, 5-(2,6-difluoro-4-(2-methyl-2H-indazol-4-yl)benzyl)-1-(2-hydroxyethyl)-4,5-dihydropyrrolo[3,4-c]pyrazol-6(1H)-one]	80%	0.91 µM
O=C1c2ccsc2CN1Cc1ccc(-c2cscn2)cc1 [Compound 47, 5-(4-(thiazol-4-yl)benzyl)-5,6-dihydro-4H-thieno[2,3-c]pyrrol-4-one]	30%	–
Cn1cc2c(-c3cc(F)c(CN4Cc5ccn(CCCO)c5C4=O)c(F)c3)cccc2n1 [Compound 54, 5-(2,6-difluoro-4-(2-methyl-2H-indazol-4-yl)benzyl)-1-(3-hydroxypropyl)-4,5-dihydropyrrolo[3,4-b]pyrrol-6(1H)-one]	69%	5.58 µM
Cn1cc2cc(-c3cc(F)c(CN4Cc5cnn(CC6CCCO6)c5C4=O)c(F)c3)ccc2n1 (stereo not shown) [Compound 36, 5-(2,6-difluoro-4-(2-methyl-2H-indazol-5-yl)benzyl)-1-((tetrahydrofuran-2-yl)methyl)-4,5-dihydropyrrolo[3,4-c]pyrazol-6(1H)-one]	82%	1.48 µM
O=C1c2ccsc2CN1Cc1ccc(-c2ccc3nccn3c2)cc1F [Compound 45, 5-(2-fluoro-4-(imidazo[1,2-a]pyridin-6-yl)benzyl)-5,6-dihydro-4H-thieno[2,3-c]pyrrol-4-one]	50%	4.46 µM
Cn1cc(-c2ccc(CN3Cc4sccc4C3=O)cc2)cn1 [Compound 46, 5-(4-(1-methyl-1H-pyrazol-4-yl)benzyl)-5,6-dihydro-4H-thieno[2,3-c]pyrrol-4-one]	50%	–
Cn1cc2c(-c3cc(F)c(CN4Cc5cc[nH]c5C4=O)c(F)c3)cccc2n1 [Compound 9, 5-(2,6-difluoro-4-(2-methyl-2H-indazol-4-yl)benzyl)-4,5-dihydropyrrolo[3,4-b]pyrrol-6(1H)-one]	36%	1.88 µM
Cn1cc2cc(-c3cc(F)c(CN4Cc5ccn(CC6CCCO6)c5C4=O)c(F)c3)ccc2n1 (stereo not shown) [Compound 8, 5-(2,6-difluoro-4-(2-methyl-2H-indazol-5-yl)benzyl)-1-((tetrahydrofuran-2-yl)methyl)-4,5-dihydropyrrolo[3,4-b]pyrrol-6(1H)-one]	33%	3.85 µM
Cn1cc2c(-c3cc(F)c(CN4Cc5ccsc5C4=O)c(F)c3)cccc2n1 [Compound 2, 5-(2,6-difluoro-4-(2-methyl-2H-indazol-4-yl)benzyl)-4,5-dihydro-6H-thieno[2,3-c]pyrrol-6-one]	70%	1.26 µM
Cn1cc2c(-c3cc(F)c(CN4Cc5ccn(C)c5C4=O)c(F)c3)cccc2n1 [Compound 4, 5-(2,6-difluoro-4-(2-methyl-2H-indazol-4-yl)benzyl)-1-methyl-4,5-dihydropyrrolo[3,4-b]pyrrol-6(1H)-one]	36%	1.88 µM
Cn1cc2cc(-c3ccc(CN4Cc5sccc5C4=O)c(F)c3)ccc2n1 [Compound 44, 5-(2-fluoro-4-(2-methyl-2H-indazol-5-yl)benzyl)-5,6-dihydro-4H-thieno[2,3-c]pyrrol-4-one]	51%	2.78 µM
Cn1cc2cc(-c3cc(F)c(CN4Cc5sccc5C4=O)c(F)c3)ccc2n1 [Compound 26, 5-(2,6-difluoro-4-(2-methyl-2H-indazol-5-yl)benzyl)-5,6-dihydro-4H-thieno[2,3-c]pyrrol-4-one]	59%	1.02 µM
Cn1cc2cccc(-c3cc(F)c(CN4Cc5cnn(CC6CCCO6)c5C4=O)c(F)c3)c2n1 (stereo not shown) [Compound 38, 5-(2,6-difluoro-4-(2-methyl-2H-indazol-7-yl)benzyl)-1-((tetrahydrofuran-2-yl)methyl)-4,5-dihydropyrrolo[3,4-c]pyrazol-6(1H)-one]	66%	6.89 µM
Cn1cc2c(-c3cc(F)c(CN4Cc5ccn(CCN6CCCC6)c5C4=O)c(F)c3)cccc2n1 [Compound 11, 5-(2,6-difluoro-4-(2-methyl-2H-indazol-4-yl)benzyl)-1-(2-(pyrrolidin-1-yl)ethyl)-4,5-dihydropyrrolo[3,4-b]pyrrol-6(1H)-one]	57%	2.92 µM
Cn1cc2c(-c3cc(F)c(CN4Cc5occc5C4=O)c(F)c3)cccc2n1 [Compound 56, 5-(2,6-difluoro-4-(2-methyl-2H-indazol-4-yl)benzyl)-5,6-dihydro-4H-furo[2,3-c]pyrrol-4-one]	80%	3.6 µM
Cn1cc2c(-c3cc(F)c(CN4Cc5cnn(CCN6CCCC6)c5C4=O)c(F)c3)cccc2n1 [Compound 20, 5-(2,6-difluoro-4-(2-methyl-2H-indazol-4-yl)benzyl)-1-(2-(pyrrolidin-1-yl)ethyl)-4,5-dihydropyrrolo[3,4-c]pyrazol-6(1H)-one]	91%	0.73 µM
